These are literature values, as cited in patent publication US20070275949A1, “Benzazepine Derivatives and Methods of Prophylaxis or Treatment of 5Ht2C Receptor Associated Diseases” (Arena Pharmaceuticals, Inc., priority 2003, published 2007).

The test system of the series is guinea pigs. As to conditions: in vivo, repeat administration.

For the compound `C[C@H](N)Cc1cccc(C(F)(F)F)c1` [dexnorfenfluramine], the “amyloid precursor protein (APPs) secretion” value is “stimulated” and the “levels of Aβ production” value is reported as “reducing”.
